Experimental data taken from PubChem BioAssay (NCI).
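Method: 48-hour compound exposure of cells in 96-well plates, five concentrations, linear interpolation of endpoints. Definition used: TGI = concentration required for complete inhibition of growth.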

Experiments:
Experiment in all cases: NCI tumour cell line growth inhibition, 48 h
A498 renal = system: A498 renal
SNB-19 CNS = system: SNB-19 CNS
786-0 renal = system: 786-0 renal
SNB-78 CNS = system: SNB-78 CNS
MALME-3M melanoma = system: MALME-3M melanoma
HCT-116 colon = system: HCT-116 colon
SN12C renal = system: SN12C renal
UO-31 renal = system: UO-31 renal
SK-OV-3 ovarian = system: SK-OV-3 ovarian
DMS 114 small cell lung = system: DMS 114 small cell lung
KM20L2 colon = system: KM20L2 colon
OVCAR-4 ovarian = system: OVCAR-4 ovarian
SF-539 CNS = system: SF-539 CNS
LXFL 529 NSCLC = system: LXFL 529 NSCLC
ACHN renal = system: ACHN renal
SF-295 CNS = system: SF-295 CNS
K-562 leukemia = system: K-562 leukemia
HOP-62 NSCLC = system: HOP-62 NSCLC
SF-268 CNS = system: SF-268 CNS
COLO 205 colon = system: COLO 205 colon
OVCAR-3 ovarian = system: OVCAR-3 ovarian
SK-MEL-5 melanoma = system: SK-MEL-5 melanoma
NCI-H522 lung = system: NCI-H522 lung
LOX IMVI melanoma = system: LOX IMVI melanoma
NCI-H460 lung = system: NCI-H460 lung
SR leukemia = system: SR leukemia
UACC-62 melanoma = system: UACC-62 melanoma
M14 melanoma = system: M14 melanoma
U251 CNS = system: U251 CNS
M19-MEL melanoma = system: M19-MEL melanoma
UACC-257 melanoma = system: UACC-257 melanoma
NCI-H23 lung = system: NCI-H23 lung
SW-620 colon = system: SW-620 colon
HL-60(TB) leukemia = system: HL-60(TB) leukemia
OVCAR-8 ovarian = system: OVCAR-8 ovarian
NCI-H226 lung = system: NCI-H226 lung
KM12 colon = system: KM12 colon
HCT-15 colon = system: HCT-15 colon
RPMI-8226 leukemia = system: RPMI-8226 leukemia
RXF-631 renal = system: RXF-631 renal
SK-MEL-28 melanoma = system: SK-MEL-28 melanoma
SNB-75 CNS = system: SNB-75 CNS
OVCAR-5 ovarian = system: OVCAR-5 ovarian
MOLT-4 leukemia = system: MOLT-4 leukemia
CAKI-1 renal = system: CAKI-1 renal
EKVX NSCLC = system: EKVX NSCLC
HT29 colon = system: HT29 colon
HCC-2998 colon = system: HCC-2998 colon
DMS 273 small cell lung = system: DMS 273 small cell lung
DLD-1 colon = system: DLD-1 colon
IGROV1 ovarian = system: IGROV1 ovarian
SK-MEL-2 melanoma = system: SK-MEL-2 melanoma
CCRF-CEM leukemia = system: CCRF-CEM leukemia
A549 NSCLC = system: A549 NSCLC
TK-10 renal = system: TK-10 renal
HOP-18 NSCLC = system: HOP-18 NSCLC

Measured: TGI

COc1cc(C=O)c(-c2c(C=O)ccc3c2OCO3)c(OC)c1OC
81.1 µM: HL-60(TB) leukemia
> 100 µM: all other assays above
